The source made the active and inactive calls. How the calls were made is not given here.
Tested on: rodent lifetime carcinogenesis bioassay, tumor incidence TD50
Test: carcinogenic potency in animals, long-term in vivo studies, CPDB compilation (AID 1745844)
Conditions: rat, in feed

OCC(CO)(CBr)CBr
TD50 (strain Fischer 344, males, site: kidney, lesion: tubule adenoma, dosed 12 weeks, study length 103 weeks): 970 mg/kg/day
TD50 (strain Fischer 344, males, site: kidney, lesion: tubule adenoma, dosed 104 weeks, study length 105 weeks): 1550 mg/kg/day
TD50 (strain Fischer 344, males, site: liver, lesion: hepatocellular adenoma + hepatoblastoma + hepatocellular carcinoma, dosed 12 weeks, study length 103 weeks): 702 mg/kg/day
TD50 (strain Fischer 344, males, site: liver, lesion: hepatocellular adenoma + hepatoblastoma + hepatocellular carcinoma, dosed 104 weeks, study length 105 weeks): 1840 mg/kg/day
TD50 (strain Fischer 344, males, site: lung, lesion: alveolar/bronchiolar adenoma + alveolar/bronchiolar carcinoma, dosed 12 weeks, study length 103 weeks): 52.4 mg/kg/day
TD50 (strain Fischer 344, males, site: lung, lesion: alveolar/bronchiolar adenoma + alveolar/bronchiolar carcinoma, dosed 104 weeks, study length 105 weeks): 729 mg/kg/day
TD50 (strain Fischer 344, males, site: lung, lesion: alveolar/bronchiolar adenoma, dosed 12 weeks, study length 103 weeks): 73.1 mg/kg/day
TD50 (strain Fischer 344, males, site: lung, lesion: alveolar/bronchiolar carcinoma, dosed 12 weeks, study length 103 weeks): 327 mg/kg/day
TD50 (strain Fischer 344, males, site: lung, lesion: alveolar/bronchiolar carcinoma, dosed 104 weeks, study length 105 weeks): 1300 mg/kg/day
TD50 (strain Fischer 344, males, site: lung, lesion: squamous-cell carcinoma, dosed 12 weeks, study length 103 weeks): 484 mg/kg/day
TD50 (strain Fischer 344, males, site: mammary gland, lesion: adenoma + fibroadenoma, dosed 104 weeks, study length 105 weeks): 262 mg/kg/day
TD50 (strain Fischer 344, males, site: mammary gland, lesion: fibroadenoma, dosed 12 weeks, study length 103 weeks): 78.3 mg/kg/day
TD50 (strain Fischer 344, males, site: mammary gland, lesion: fibroadenoma, dosed 104 weeks, study length 105 weeks): 275 mg/kg/day
TD50 (strain Fischer 344, males, site: palate + tongue, lesion: squamous-cell carcinoma + squamous-cell papilloma, dosed 12 weeks, study length 103 weeks): 24 mg/kg/day
TD50 (strain Fischer 344, males, site: palate + tongue, lesion: squamous-cell papilloma, dosed 12 weeks, study length 103 weeks): 24.6 mg/kg/day
TD50 (strain Fischer 344, males, site: palate + tongue, lesion: squamous-cell papilloma, dosed 104 weeks, study length 105 weeks): 300 mg/kg/day
TD50 (strain Fischer 344, males, site: palate, lesion: squamous-cell papilloma, dosed 12 weeks, study length 103 weeks): 115 mg/kg/day
TD50 (strain Fischer 344, males, site: palate, lesion: squamous-cell papilloma, dosed 104 weeks, study length 105 weeks): 808 mg/kg/day
TD50 (strain Fischer 344, males, site: pancreas, lesion: acinar-cell adenoma, dosed 12 weeks, study length 103 weeks): 193 mg/kg/day
TD50 (strain Fischer 344, males, site: pancreas, lesion: acinar-cell adenoma, dosed 104 weeks, study length 105 weeks): 516 mg/kg/day
TD50 (strain Fischer 344, males, site: pancreatic islets, lesion: islet-cell adenoma + islet-cell carcinoma, dosed 104 weeks, study length 105 weeks): 208 mg/kg/day
TD50 (strain Fischer 344, males, site: pituitary gland, lesion: pars distalis adenoma + pars distalis carcinoma, dosed 104 weeks, study length 105 weeks): 462 mg/kg/day
TD50 (strain Fischer 344, males, site: pituitary gland, lesion: pars distalis adenoma, dosed 12 weeks, study length 103 weeks): 67.3 mg/kg/day
TD50 (strain Fischer 344, males, site: pituitary gland, lesion: pars distalis adenoma, dosed 104 weeks, study length 105 weeks): 493 mg/kg/day
TD50 (strain Fischer 344, males, site: preputial gland, lesion: adenoma + carcinoma, dosed 12 weeks, study length 103 weeks): 39 mg/kg/day
TD50 (strain Fischer 344, males, site: preputial gland, lesion: adenoma + carcinoma, dosed 104 weeks, study length 105 weeks): 793 mg/kg/day
TD50 (strain Fischer 344, males, site: preputial gland, lesion: adenoma, dosed 12 weeks, study length 103 weeks): 22.8 mg/kg/day
TD50 (strain Fischer 344, males, site: preputial gland, lesion: adenoma, dosed 104 weeks, study length 105 weeks): 819 mg/kg/day
TD50 (strain Fischer 344, males, site: seminal vesicle, lesion: adenoma + carcinoma, dosed 12 weeks, study length 103 weeks): 453 mg/kg/day
TD50 (strain Fischer 344, males, site: skin, lesion: basal-cell adenoma + basal-cell carcinoma + keratoacanthoma + squamous-cell carcinoma + squamous-cell papilloma + trichoepitheliom, dosed 104 weeks, study length 105 weeks): 166 mg/kg/day
TD50 (strain Fischer 344, males, site: skin, lesion: basal-cell adenoma + basal-cell carcinoma + trichoepithelioma, dosed 104 weeks, study length 105 weeks): 720 mg/kg/day
TD50 (strain Fischer 344, males, site: skin, lesion: basal-cell adenoma + keratoacanthoma + squamous-cell carcinoma + squamous-cell papilloma + trichoepithelioma, dosed 12 weeks, study length 103 weeks): 16.9 mg/kg/day
TD50 (strain Fischer 344, males, site: skin, lesion: basal-cell adenoma + trichoepithelioma, dosed 12 weeks, study length 103 weeks): 64.6 mg/kg/day
TD50 (strain Fischer 344, males, site: skin, lesion: basal-cell adenoma, dosed 12 weeks, study length 103 weeks): 82.3 mg/kg/day
TD50 (strain Fischer 344, males, site: skin, lesion: basal-cell adenoma, dosed 104 weeks, study length 105 weeks): 1530 mg/kg/day
TD50 (strain Fischer 344, males, site: skin, lesion: keratoacanthoma, dosed 12 weeks, study length 103 weeks): 42.5 mg/kg/day
TD50 (strain Fischer 344, males, site: skin, lesion: keratoacanthoma, dosed 104 weeks, study length 105 weeks): 235 mg/kg/day
TD50 (strain Fischer 344, males, site: skin, lesion: squamous-cell carcinoma + squamous-cell papilloma, dosed 12 weeks, study length 103 weeks): 21.7 mg/kg/day
TD50 (strain Fischer 344, males, site: skin, lesion: squamous-cell carcinoma + squamous-cell papilloma, dosed 104 weeks, study length 105 weeks): 1130 mg/kg/day
TD50 (strain Fischer 344, males, site: skin, lesion: squamous-cell papilloma, dosed 12 weeks, study length 103 weeks): 46.2 mg/kg/day
TD50 (strain Fischer 344, males, site: skin, lesion: squamous-cell papilloma, dosed 104 weeks, study length 105 weeks): 1130 mg/kg/day
TD50 (strain Fischer 344, males, site: subcutaneous tissue, lesion: fibroma, dosed 12 weeks, study length 103 weeks): 111 mg/kg/day
TD50 (strain Fischer 344, males, site: subcutaneous tissue, lesion: fibroma, dosed 104 weeks, study length 105 weeks): 271 mg/kg/day
TD50 (strain Fischer 344, males, site: subcutaneous tissue, lesion: fibrosarcoma + fibroma + sarcoma, dosed 12 weeks, study length 103 weeks): 87.3 mg/kg/day
TD50 (strain Fischer 344, males, site: subcutaneous tissue, lesion: fibrosarcoma + fibroma + sarcoma, dosed 104 weeks, study length 105 weeks): 221 mg/kg/day
TD50 (strain Fischer 344, males, site: subcutaneous tissue, lesion: fibrosarcoma + sarcoma, dosed 12 weeks, study length 103 weeks): 654 mg/kg/day
TD50 (strain Fischer 344, males, site: subcutaneous tissue, lesion: fibrosarcoma + sarcoma, dosed 104 weeks, study length 105 weeks): 1080 mg/kg/day
TD50 (strain Fischer 344, males, site: subcutaneous tissue, lesion: sarcoma, dosed 104 weeks, study length 105 weeks): 1550 mg/kg/day
TD50 (strain Fischer 344, males, site: testis, lesion: interstitial-cell adenoma, bilateral + interstitial-cell adenoma, dosed 12 weeks, study length 103 weeks): 5.94 mg/kg/day
TD50 (strain Fischer 344, males, site: testis, lesion: interstitial-cell adenoma, bilateral + interstitial-cell adenoma, dosed 104 weeks, study length 105 weeks): 66.5 mg/kg/day
TD50 (strain Fischer 344, males, site: thyroid gland, lesion: c-cell adenoma + c-cell carcinoma, bilateral + c-cell carcinoma, dosed 104 weeks, study length 105 weeks): 675 mg/kg/day
TD50 (strain Fischer 344, males, site: thyroid gland, lesion: c-cell carcinoma, bilateral + c-cell carcinoma, dosed 104 weeks, study length 105 weeks): 1920 mg/kg/day
TD50 (strain Fischer 344, males, site: thyroid gland, lesion: follicular-cell adenoma + follicular-cell carcinoma, dosed 12 weeks, study length 103 weeks): 82.6 mg/kg/day
TD50 (strain Fischer 344, males, site: thyroid gland, lesion: follicular-cell adenoma + follicular-cell carcinoma, dosed 104 weeks, study length 105 weeks): 629 mg/kg/day
TD50 (strain Fischer 344, males, site: thyroid gland, lesion: follicular-cell adenoma, dosed 12 weeks, study length 103 weeks): 132 mg/kg/day
TD50 (strain Fischer 344, males, site: thyroid gland, lesion: follicular-cell carcinoma, dosed 104 weeks, study length 105 weeks): 1110 mg/kg/day
TD50 (strain Fischer 344, males, site: tongue, lesion: squamous-cell papilloma, dosed 12 weeks, study length 103 weeks): 30.8 mg/kg/day
TD50 (strain Fischer 344, males, site: tongue, lesion: squamous-cell papilloma, dosed 104 weeks, study length 105 weeks): 500 mg/kg/day
TD50 (strain Fischer 344, males, site: urinary bladder, lesion: transitional-cell carcinoma + transitional-cell papilloma, dosed 12 weeks, study length 103 weeks): 223 mg/kg/day
TD50 (strain Fischer 344, males, site: urinary bladder, lesion: transitional-cell carcinoma + transitional-cell papilloma, dosed 104 weeks, study length 105 weeks): 2320 mg/kg/day
TD50 (strain Sprague-Dawley Spartan, females, site: any site (literature study), lesion: several types, types named in the paper, dosed 104 weeks, study length 104 weeks): 1730 mg/kg/day (inactive)
carcinogen call (strain Sprague-Dawley Spartan, females, site: liver, lesion: hepatocellular carcinoma, dosed 104 weeks, study length 104 weeks): negative (inactive)
TD50 (strain Sprague-Dawley Spartan, females, site: liver, lesion: hepatocellular hyperplastic nodule, dosed 104 weeks, study length 104 weeks): 2550 mg/kg/day (inactive)
carcinogen call (strain Sprague-Dawley Spartan, males, site: any site (literature study), lesion: several types, types named in the paper, dosed 104 weeks, study length 104 weeks): negative (inactive)
carcinogen call (strain Sprague-Dawley Spartan, males, site: liver, lesion: hepatocellular carcinoma, dosed 104 weeks, study length 104 weeks): negative (inactive)
carcinogen call (strain Sprague-Dawley Spartan, males, site: liver, lesion: hepatocellular hyperplastic nodule, dosed 104 weeks, study length 104 weeks): negative (inactive)

— PubChem BioAssay AID1745844 (Carcinogenic Potency Database (CPDB), 2022)
